Test results: US10414740B2, “Glutaminase inhibitors and method of use” (Agios Pharmaceuticals, Inc., priority 2012, dated 2019)

Target: T1, glutaminase (GAC) (Homo sapiens, UniProt O94925)
T1 sequence (O94925 55-598 isoform O94925-3 limits assumed): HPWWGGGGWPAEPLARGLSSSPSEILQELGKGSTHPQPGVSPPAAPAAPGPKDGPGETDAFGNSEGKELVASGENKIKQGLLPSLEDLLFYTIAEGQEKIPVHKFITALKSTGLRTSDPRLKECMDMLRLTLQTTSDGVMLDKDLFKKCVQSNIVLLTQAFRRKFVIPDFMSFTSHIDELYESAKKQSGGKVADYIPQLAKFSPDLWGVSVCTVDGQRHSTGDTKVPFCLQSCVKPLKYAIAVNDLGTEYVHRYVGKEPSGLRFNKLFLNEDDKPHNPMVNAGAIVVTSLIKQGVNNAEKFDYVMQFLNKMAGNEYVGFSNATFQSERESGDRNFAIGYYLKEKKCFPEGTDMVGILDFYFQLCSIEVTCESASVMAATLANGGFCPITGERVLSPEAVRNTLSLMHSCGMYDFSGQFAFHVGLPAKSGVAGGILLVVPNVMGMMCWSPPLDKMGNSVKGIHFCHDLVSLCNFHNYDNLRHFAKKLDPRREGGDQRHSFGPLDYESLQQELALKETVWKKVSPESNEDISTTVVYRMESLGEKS
Assay: glutaminase coupled endpoint assay (Example A)
Format: biochemical
Conditions: inhibition of glutaminase; IC50 tested in an assay of Example A or Example B
Experimental: In this example, the enzymatic activity of glutaminase is measured through a coupled endpoint assay. […] The glutamate produced is converted to 2-OG by a kinetic excess of glutamate dehydrogenase. […] However, a kinetic excess of the third coupling enzyme, diaphorase, recycles NAD from NADH to keep the NAD concentration constant during the timecourse of the assay. Diaphorase, also supplied in kinetic excess, oxidizes NADH produced by GDH back to NAD with the concomitant reduction of rezasurin to the highly fluorescent resorufin. […] A reduction in the signal indicates inhibition of some component of the coupled enzyme system. Prospective hits are counterscreened against GDH/diaphorase alone to remove hits to the coupling enzyme system in a second assay.
2. […] Add 1 μl a compound in 100% DMSO 2. Add 40 μl of Enzyme Mix and incubate for 60 minute at room temperature 3. Add 10 μl of Substrate Mix to start reaction 4.

| SMILES | IC50 |
| --- | --- |
| COc1ccc2[nH]cc(CC(=O)Nc3nnc(CCCCc4nnc(NC(C)=O)s4)s3)c2c1 [Compound 129] | < 0.1 µM |
| COc1ccc(CC(=O)Nc2nnc(CCCCc3nnc(NC(C)=O)s3)s2)cc1OC [Compound 118, N-(5-(4-(5-acetamido-1,3,4-thiadiazol-2-yl)butyl)-1,3,4-thiadiazol-2-yl)-2-(3,4-dimethoxyphenyl)acetamide] | 0.1 to 0.5 µM |
| O=C(CNC(=O)c1ccccc1)Nc1nnc(CCCCc2nnc(NC(=O)CNC(=O)c3ccccc3)s2)s1 [Compound 103, N,N′-(2,2′-(5,5′-(butane-1,4-diyl)bis(1,3,4-thiadiazole-5,2-diyl))bis(azanediyl)bis(2-oxoethane-2,1-diyl))dibenzamide] | 0.5 to 1 µM |
| CNC(=O)c1nnc(CCSCCc2nnc(C(=O)NC)s2)s1 [Compound 77] | 1 to 10 µM |
| CC(C(=O)Nc1nnc(CCCCc2nnc(NC(=O)C(C)c3ccc(Cl)cc3)s2)s1)c1ccc(Cl)cc1 (centres unmarked) [Compound 52, N,N′-(5,5′-(butane-1,4-diyl)bis(1,3,4-thiadiazole-5,2-diyl))bis(2-(4-chlorophenyl)propanamide)] | 0.1 to 0.5 µM |
| Cc1ccc(C)c(OCC(=O)Nc2nnc(CCCCc3nnc(NC(=O)COc4cc(C)ccc4C)s3)s2)c1 [Compound 67] | 1 to 10 µM |
| O=C(Cc1cccnc1)Nc1nnc(CCCCCc2nnc(NC(=O)Cc3cccnc3)s2)s1 [Compound 10, N,N′-(5,5′-(pentane-1,5-diyl)bis(1,3,4-thiadiazole-5,2-diyl))bis(2-(pyridin-3-yl)acetamide)] | 0.1 to 0.5 µM |
| O=C(CCc1ccco1)Nc1nnc(CCCCc2nnc(NC(=O)CCc3ccco3)s2)s1 [Compound 49, N,N′-(5,5′-(butane-1,4-diyl)bis(1,3,4-thiadiazole-5,2-diyl))bis(3-(furan-2-yl)propanamide)] | 0.1 to 0.5 µM |
| O=C(Nc1nnc(CCCCc2nnc(NC(=O)C3CCC3)s2)s1)C1CCC1 [Compound 102, N,N′-(5,5′-(butane-1,4-diyl)bis(1,3,4-thiadiazole-5,2-diyl))dicyclobutanecarboxamide] | 0.5 to 1 µM |
| CCOC(=O)CCCC(=O)Nc1nnc(CCCCc2nnc(NC(=O)CCCC(=O)OCC)s2)s1 [Compound 76, Diethyl 5,5′-(5,5′-(butane-1,4-diyl)bis(1,3,4-thiadiazole-5,2-diyl))bis(azanediyl)bis(5-oxopentanoate)] | 0.1 to 0.5 µM |
| CC(C(=O)Nc1nnc(CCCCc2nnc(NC(=O)C(C)c3ccc(N4Cc5ccccc5C4=O)cc3)s2)s1)c1ccc(N2Cc3ccccc3C2=O)cc1 (centres unmarked) [Compound 50, N,N′-(5,5′-(butane-1,4-diyl)bis(1,3,4-thiadiazole-5,2-diyl))bis(2-(4-(1-oxoisoindolin-2-yl)phenyl)propanamide)] | 0.1 to 0.5 µM |
| O=C(Cc1ccccc1)Nc1nnc(CCS(=O)(=O)CCc2nnc(NC(=O)Cc3ccccc3)s2)s1 [Compound 4, N,N′-(5,5′-(sulfonylbis(ethane-2,1-diyl))bis(1,3,4-thiadiazole-5,2-diyl))bis(2-phenylacetamide)] | < 0.1 µM |
| O=C(Nc1nnc(CCCCc2nnc(NC(=O)C3(c4ccccc4)CC3)s2)s1)C1(c2ccccc2)CC1 [Compound 84] | 1 to 10 µM |
| O=C(Cc1c[nH]c2cccnc12)Nc1nnc(CCCCc2nnc(NC(=O)Cc3c[nH]c4cccnc34)s2)s1 [Compound 127, N,N′-(5,5′-(butane-1,4-diyl)bis(1,3,4-thiadiazole-5,2-diyl))bis(2-(1H-pyrrolo[3,2-b]pyridin-3-yl)acetamide)] | < 0.1 µM |
| CC(C)COC(=O)Nc1nnc(CCS(=O)(=O)CCc2nnc(NC(=O)OCC(C)C)s2)s1 [Compound 22, Diisobutyl (5,5′-(sulfonylbis(ethane-2,1-diyl))bis(1,3,4-thiadiazole-5,2-diyl))dicarbamate] | 0.1 to 0.5 µM |
| O=C(CCc1nnc(NC(=O)Cc2ccccn2)s1)CCc1nnc(NC(=O)Cc2ccccn2)s1 [Compound 73] | 0.5 to 1 µM |
| O=C(Cc1ccccn1)Nc1nnc(CC/C=C/CCc2nnc(NC(=O)Cc3ccccn3)s2)s1 [Compound 25] | 1 to 10 µM |
| Cn1cc(CC(=O)Nc2nnc(CCCCc3nnc(NC(=O)Cc4cn(C)c5ccccc45)s3)s2)c2ccccc21 [Compound 130, N,N′-(5,5′-(butane-1,4-diyl)bis(1,3,4-thiadiazole-5,2-diyl))bis(2-(1-methyl-1H-indol-3-yl)acetamide)] | < 0.1 µM |
| O=C(Cc1ccccc1)Nc1nnc(CC[S+]([O-])CCc2nnc(NC(=O)Cc3ccccc3)s2)s1 [Compound 7, N,N′-(5,5′-(sulfinylbis(ethane-2,1-diyl))bis(1,3,4-thiadiazole-5,2-diyl))bis(2-phenyl Acetamide)] | 0.1 to 0.5 µM |
| CN(C(=O)Nc1nnc(CCSCCc2nnc(NC(=O)N(C)c3ccccc3)s2)s1)c1ccccc1 [Compound 18, 1,1′-(5,5′-(thiobis(ethane-2,1-diyl))bis(1,3,4-thiadiazole-5,2-diyl))bis(3-methyl-3-phenylurea)] | 1 to 10 µM |
| O=C(CCCc1ccccc1)Nc1nnc(CCCCc2nnc(NC(=O)CCCc3ccccc3)s2)s1 [Compound 82, N,N′-(5,5′-(butane-1,4-diyl)bis(1,3,4-thiadiazole-5,2-diyl))bis(4-phenylbutanamide)] | 0.1 to 0.5 µM |
| CC(C)(C(=O)Nc1nnc(CCCCc2nnc(NC(=O)C(C)(C)c3ccccc3)s2)s1)c1ccccc1 [Compound 88, N,N′-(5,5′-(butane-1,4-diyl)bis(1,3,4-thiadiazole-5,2-diyl))bis(2-methyl-2-phenylpropanamide)] | 0.5 to 1 µM |
| O=C(Cc1c[nH]c2ccncc12)Nc1nnc(CCCCc2nnc(NC(=O)Cc3c[nH]c4ccncc34)s2)s1 [Compound 124, N,N′-(5,5′-(butane-1,4-diyl)bis(1,3,4-thiadiazole-5,2-diyl))bis(2-(1H-pyrrolo[3,2-c]pyridin-3-yl)acetamide)] | < 0.1 µM |
| O=C(CCOc1ccccc1)Nc1nnc(CCCCc2nnc(NC(=O)CCOc3ccccc3)s2)s1 [Compound 111, N,N′-(5,5′-(butane-1,4-diyl)bis(1,3,4-thiadiazole-5,2-diyl))bis(3-phenoxypropanamide)] | 0.1 to 0.5 µM |
| O=C(Cc1cccnc1)Nc1nnc(CCS(=O)(=O)CCc2nnc(NC(=O)Cc3cccnc3)s2)s1 [Compound 14, N,N′-(5,5′-(sulfonylbis(ethane-2,1-diyl))bis(1,3,4-thiadiazole-5,2-diyl))bis(2-(pyridin-3-yl)acetamide)] | < 0.1 µM |
| O=C(Cc1ccccc1)Nc1nnc(CCCSCc2nnc(NC(=O)Cc3ccccc3)s2)s1 [Compound 6, 2-Phenyl-N-(5-(3-(((5-(2-phenylacetamido)-1,3,4-thiadiazol-2-yl)methyl)thio)propyl)-1,3,4-thiadiazol-2-yl)acetamide] | 0.5 to 1 µM |
| CC(C)(C)CC(=O)Nc1nnc(CCCCc2nnc(NC(=O)CC(C)(C)C)s2)s1 [Compound 96] | 1 to 10 µM |
| O=C(Cc1ccccn1)Nc1nnc(CC[S+]([O-])CCc2nnc(NC(=O)Cc3ccccn3)s2)s1 [Compound 17, N,N′-(5,5′-(sulfinylbis(ethane-2,1-diyl))bis(1,3,4-thiadiazole-5,2-diyl))bis(2-(pyridin-2-yl)acetamide)] | 0.1 to 0.5 µM |
| O=C(Cc1c[nH]c2cnccc12)Nc1nnc(CCCCc2nnc(NC(=O)Cc3c[nH]c4cnccc34)s2)s1 [Compound 125, N,N′-(5,5′-(butane-1,4-diyl)bis(1,3,4-thiadiazole-5,2-diyl))bis(2-(1H-pyrrolo[2,3-c]pyridin-3-yl)acetamide)] | < 0.1 µM |
